This is an account of results in patent US20230293517A1, “ANTAGONIST COMPOUNDS” (AdoRx Therapeutics Limited, priority 2020, published 2023).

Each structure is given as a SMILES string. Read-outs that look alike come from different tables or passages of the source.

For experiment [1], the target named is human Adenosine A1 receptor (Homo sapiens (Human), UniProt P30542). The experiment in a line: Adenosine receptor TR-FRET binding assay (A1). As to conditions: inhibition of binding of 100 nM CA200645, CHO cell membranes. In a few lines:
(§1)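 Ki values come from Cheng–Prusoff conversion of IC50s for displacement of fluorescent antagonist CA200645 from terbium-labelled human adenosine receptors in CHO membranes. Tracer was 30 nM at A2b and 100 nM at the other three subtypes; incubation lasted 2 h at room temperature.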
On the technique in general: TR-FRET usually uses a lanthanide donor and a delayed reading to cut background.

Experiment [2] addresses human Adenosine A2a receptor (Homo sapiens (Human), UniProt P29274). The experiment in a line: Adenosine receptor TR-FRET binding assay (A2a). As to conditions: inhibition of binding of 100 nM CA200645, CHO cell membranes. Put shortly: as §1
The target in experiment [3] is human Adenosine A2b receptor (Homo sapiens (Human), UniProt P29275). The experiment in a line: Adenosine receptor TR-FRET binding assay (A2b). Put shortly: as §1
Chain of human Adenosine A2b receptor (P29275 whole entry): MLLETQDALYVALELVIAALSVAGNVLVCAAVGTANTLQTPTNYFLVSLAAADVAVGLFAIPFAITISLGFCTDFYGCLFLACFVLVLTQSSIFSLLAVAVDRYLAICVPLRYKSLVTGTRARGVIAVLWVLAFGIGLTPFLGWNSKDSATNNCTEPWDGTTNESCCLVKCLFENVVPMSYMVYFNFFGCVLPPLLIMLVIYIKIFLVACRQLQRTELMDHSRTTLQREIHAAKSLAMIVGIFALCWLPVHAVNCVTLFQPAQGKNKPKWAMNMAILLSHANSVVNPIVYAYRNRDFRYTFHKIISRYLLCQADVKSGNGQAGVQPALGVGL
Experiment [4] addresses human Adenosine A3 receptor (Homo sapiens (Human), UniProt P0DMS8). The experiment in a line: Adenosine receptor TR-FRET binding assay (A3). As to conditions: inhibition of binding of 100 nM CA200645, CHO cell membranes. Put shortly: as §1
Experiment [5] concerns CD8+T cells in human whole blood. The experiment in a line: Measurement of pCREB in CD8+T cells in human whole blood. It counts as cell-based. The conditions noted are these: 3 μM NECA, rolipram. In a few lines: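 Heparinised human whole blood pre-incubated 20 min at 37 °C with serially diluted A2a antagonists plus rolipram, then stimulated 60 min with 3 μM NECA (final). After fixation and red-cell lysis, white cells were permeabilized and stained for phospho-CREB and CD8; pCREB in CD8+ T cells measured by flow cytometry.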

Experiment [6] deals with immature monocyte-derived dendritic cells (MoDC). The experiment in a line: MoDC pCREB assay. It counts as cell-based, human. As to conditions: pCREB in immature MoDC, 1 μM NECA, rolipram. As to the method: Monocytes are isolated from human whole blood using CD14 microbeads (Miltenyi Biotec 130-050-201) and differentiated to immature monocyte-derived dendritic cells (MoDC) by culture for 5 days in Mo-DC Differentiation Medium (Miltenyi Biotec 130-094-812). MoDCs are seeded into fresh medium into U bottomed 96 well culture plates and pre-incubated at 37° C. with serial dilutions of A2A/B antagonists for 15 min. At the same time the cells are co-incubated with the phosphodiesterase inhibitor rolipram (final concentration of 20 µM) to amplify the subsequent pCREB response. Adenosine receptor agonist NECA is then added at 1 μM final concentration, leading to an increase in CREB phosphorylation. Following a 45 min incubation at 37° C., the cells are fixed, permeabilized and stained with directly conjugated fluorescent antibodies to phospho-CREB (Alexa Fluor 488), CD209 (PerCP-Cy5.5) and CD86 (APC). Samples are analysed by FACS to measure fluorescence in corresponding channels, and also forward and Side scatter. The population of CD209+/CD86− low cells corresponding to immature dendritic cells is gated for analysis of pCREB levels.
Approximately 5% of the analysed cells are positive for detection of pCREB in the absence of agonist stimulation, representing the background signalling of all pathways upstream of CREB. Following NECA stimulation this is increased to ˜80% pCREB+ve, and this increase is essentially fully reversible by A2B or dual A2A/B antagonists.
IC50 is represented as the point of inflection of a sigmoidal curve

Setting [7] is: TR-FRET, inhibition of binding of 30 nM CA200645, CHO cell membranes.

Chain of human Adenosine A2a receptor (P29274 whole entry): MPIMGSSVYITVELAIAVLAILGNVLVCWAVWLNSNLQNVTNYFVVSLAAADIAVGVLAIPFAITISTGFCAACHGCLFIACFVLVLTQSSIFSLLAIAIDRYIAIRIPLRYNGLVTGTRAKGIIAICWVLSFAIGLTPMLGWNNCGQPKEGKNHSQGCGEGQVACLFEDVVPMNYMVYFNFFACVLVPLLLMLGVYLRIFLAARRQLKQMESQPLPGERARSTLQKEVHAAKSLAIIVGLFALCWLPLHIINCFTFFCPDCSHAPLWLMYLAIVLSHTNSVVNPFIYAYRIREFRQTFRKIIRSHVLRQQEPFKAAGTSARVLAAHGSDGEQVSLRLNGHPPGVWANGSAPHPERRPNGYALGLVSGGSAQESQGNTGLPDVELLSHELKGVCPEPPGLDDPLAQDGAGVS
Chain of human Adenosine A1 receptor (P30542 whole entry): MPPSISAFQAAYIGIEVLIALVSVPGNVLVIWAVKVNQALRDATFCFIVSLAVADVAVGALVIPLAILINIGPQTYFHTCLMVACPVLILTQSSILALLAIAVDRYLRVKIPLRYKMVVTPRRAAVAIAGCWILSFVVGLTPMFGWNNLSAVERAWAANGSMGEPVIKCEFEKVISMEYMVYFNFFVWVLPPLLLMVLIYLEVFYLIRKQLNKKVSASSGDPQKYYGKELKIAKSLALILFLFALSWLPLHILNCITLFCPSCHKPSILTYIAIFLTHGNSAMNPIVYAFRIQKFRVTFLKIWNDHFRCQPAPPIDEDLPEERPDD
Chain of human Adenosine A3 receptor (P0DMS8 whole entry): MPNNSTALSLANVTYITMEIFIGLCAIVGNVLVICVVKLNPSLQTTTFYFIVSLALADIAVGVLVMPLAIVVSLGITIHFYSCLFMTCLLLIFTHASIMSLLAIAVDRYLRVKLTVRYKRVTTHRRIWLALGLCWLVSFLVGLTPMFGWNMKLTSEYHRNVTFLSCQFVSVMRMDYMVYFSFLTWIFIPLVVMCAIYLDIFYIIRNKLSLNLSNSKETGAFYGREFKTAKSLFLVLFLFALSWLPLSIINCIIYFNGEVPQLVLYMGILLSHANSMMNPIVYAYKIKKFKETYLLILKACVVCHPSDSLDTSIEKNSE

Regarding `COCc1cc(-c2sc(NC(=O)N3CC4(COC4)C3)nc2-c2cccc(C#N)c2)cc(C)n1` [Example 21, N-[4-(3-Cyanophenyl)-5-[2-(methoxymethyl)-6-methyl-4-pyridyl]thiazol-2-yl]-2-oxa-6-azaspiro[3.3]heptane-6-carboxamide], the inhibition constant (Ki) in experiment [1] was 29 nM; in experiment [2], 0.21 nM; in experiment [3] (setting [7]) it was 3.9 nM; in experiment [4], 1560 nM. Also, the IC50 in experiment [5] stood at 20 nM; in experiment [6] (Homo sapiens, Dendritic cell), 19 nM.

For the compound `Cc1cc(-c2sc(NC(=O)N3CCC(S(N)(=O)=O)C3)nc2-c2cccc(C#N)c2)cc(C)n1` (stereo not drawn) [Example 6.2, N-[4-(3-Cyanophenyl)-5-(2,6-dimethyl-4-pyridyl)thiazol-2-yl]-3-sulfamoyl-pyrrolidine-1-carboxamide], the Ki worked out at 24 nM in experiment [1], 1.28 nM in experiment [2], 0.9 nM in experiment [3] (setting [7]) and 166 nM in experiment [4]. The same compound had a 50% inhibitory concentration (IC50) in experiment [6] (Homo sapiens, Dendritic cell) of 28 nM.

With `Cc1cc(-c2sc(NC(=O)N3CC4(COC4)C3)nc2-c2cccc(C#N)c2)cc(C(C)O)n1` (racemic) [Example 12.3, N-[4-(3-Cyanophenyl)-5-[2-(1-hydroxyethyl)-6-methyl-4-pyridyl]thiazol-2-yl]-2-oxa-6-azaspiro[3.3]heptane-6-carboxamide], the inhibition constant (Ki) amounted to 27 nM in experiment [1], 0.44 nM in experiment [2], 5 nM in experiment [3] (setting [7]) and 1810 nM in experiment [4]. Moreover, the concentration for half-maximal inhibition (IC50) in experiment [5] worked out at 20 nM; in experiment [6] (Homo sapiens, Dendritic cell), 31 nM.

For `Cc1cc(-c2sc(NC(=O)N3CC[C@@](C)(C#N)C3)nc2-c2cccc(C#N)c2)cc(C)n1` [Example 27a, (3R)-3-Cyano-N-[4-(3-cyanophenyl)-5-(2,6-dimethyl-4-pyridyl)thiazol-2-yl]-3-methyl-pyrrolidine-1-carboxamide], the Ki in experiment [1] came out at 37 nM; in experiment [2] it was 0.54 nM; in experiment [3] (setting [7]), 1.2 nM; in experiment [4], 313 nM. In addition, the IC50 in experiment [5] came to 80 nM; in experiment [6] (Homo sapiens, Dendritic cell) it was 10 nM.

Consider `Cc1cc(-c2sc(NC(=O)N3CC4(COC4)C3)nc2-c2cccc(C#N)c2)cc(C2COC2)n1` [Example 16.4], for which the inhibition constant (Ki) in experiment [1] was 12 nM; in experiment [2], 0.13 nM; in experiment [3] (setting [7]), 3.3 nM; in experiment [4], 1710 nM. In experiment [6] (Homo sapiens, Dendritic cell), this compound registered an IC50 of 36 nM.

`N#Cc1cccc(-c2nc(NC(=O)N3CC4(COC4)C3)sc2-c2cc(CO)nc(C(F)(F)F)c2)c1` [Example 26, N-[4-(3-Cyanophenyl)-5-[2-(hydroxymethyl)-6-(trifluoromethyl)-4-pyridyl]thiazol-2-yl]-2-oxa-6-azaspiro[3.3]heptane-6-carboxamide]: the Ki in experiment [1] came to 38 nM; in experiment [2], 0.24 nM; in experiment [3] (setting [7]) it was 1.2 nM; in experiment [4] it was 456 nM. Further, the IC50 in experiment [5] was determined as 50 nM; in experiment [6] (Homo sapiens, Dendritic cell) it was 17 nM.

Take `Cc1cc(-c2sc(NC(=O)N3CC4(COC4)C3)nc2-c2cccc(C#N)c2)cc(C(F)F)n1` [Example 6.97, N-[4-(3-Cyanophenyl)-5-[2-(difluoromethyl)-6-methyl-4-pyridyl]thiazol-2-yl]-2-oxa-6-azaspiro[3.3]heptane-6-carboxamide]: the Ki came out at 17 nM in experiment [1], 0.23 nM in experiment [2], 1.1 nM in experiment [3] (setting [7]) and 250 nM in experiment [4]. In addition, the IC50 in experiment [5] stood at 50 nM; in experiment [6] (Homo sapiens, Dendritic cell), 13 nM.

In the case of `[2H]C([2H])([2H])c1cc(-c2sc(NC(=O)N3CC4(COC4)C3)nc2-c2cccc(C#N)c2)cc(C([2H])([2H])[2H])n1` [Example 6.104, N-[5-[2,6-Bis(trideuteriomethyl)-4-pyridyl]-4-(3-cyanophenyl)thiazol-2-yl]-2-oxa-6-azaspiro[3.3]heptane-6-carboxamide], the Ki worked out at 31 nM in experiment [1], 0.2 nM in experiment [2], 1 nM in experiment [3] (setting [7]) and 564 nM in experiment [4]. This compound also had an IC50 in experiment [6] (Homo sapiens, Dendritic cell) of 12 nM.

`Cc1cc(-c2sc(NC(=O)N3CC4(COC4)C3)nc2-c2cccc(C#N)c2)cc([C@@H](C)O)n1` (single isomer, unassigned) [Example 12.3a, N-[4-(3-Cyanophenyl)-5-[2-[(1R)-1-hydroxyethyl]-6-methyl-4-pyridyl]thiazol-2-yl]-2-oxa-6-azaspiro[3.3]heptane-6-carboxamide or N-[4-(3-cyanophenyl)-5-[2-[(1S)-1-hydroxyethyl]-6-methyl-4-pyridyl]thiazol-2-yl]-2-oxa-6-azaspiro[3.3]heptane-6-carboxamide]: the inhibitory constant (Ki) in experiment [1] turned out to be 23 nM; in experiment [2], 0.18 nM; in experiment [3] (setting [7]) it was 2.6 nM; in experiment [4], 1090 nM. The results for the IC50 in experiment [5] and in experiment [6] were 10 nM and 16 nM, respectively.

Consider `Cc1cc(-c2sc(NC(=O)N3CCC4(CNCCO4)C3)nc2-c2cccc(C#N)c2)cc(C(F)F)n1` (stereo not drawn) [Example 6.108, N-[4-(3-Cyanophenyl)-5-[2-(difluoromethyl)-6-methyl-4-pyridyl]thiazol-2-yl]-6-oxa-2,9-diazaspiro[4.5]decane-2-carboxamide], for which the Ki in experiment [1] was 34 nM; in experiment [2], 0.59 nM; in experiment [3] (setting [7]), 0.9 nM; in experiment [4], 145 nM. The compound also yielded an IC50 in experiment [6] (Homo sapiens, Dendritic cell) of 62 nM.

For the compound `CCc1cc(-c2sc(NC(=O)N3CC4(COC4)C3)nc2-c2cccc(C#N)c2)cc(C)n1` [Example 16.9], the Ki amounted to 9 nM in experiment [1], 0.1 nM in experiment [2], 0.8 nM in experiment [3] (setting [7]) and 350 nM in experiment [4]. This compound also displayed a half-inhibitory concentration (IC50) in experiment [6] (Homo sapiens, Dendritic cell) of 18 nM.

On to `Cc1cc(-c2sc(NC(=O)N3C[C@@H]4OCCN(C)[C@@H]4C3)nc2-c2cccc(C#N)c2)cc(C)n1` (racemic) [Example 6.98, rac-(4aR,7aS)-N-[4-(3-Cyanophenyl)-5-(2,6-dimethyl-4-pyridyl)thiazol-2-yl]-4-methyl-2,3,4a,5,7,7a-hexahydropyrrolo[3,4-b][1,4]oxazine-6-carboxamide], for which the Ki stood at 0.91 nM in experiment [2], 7 nM in experiment [3] and 819 nM in experiment [4]. The half-maximal inhibitory concentration (IC50) in experiment [5] worked out at 50 nM; in experiment [6] (Homo sapiens, Dendritic cell) it was 72 nM.

Turning to `Cc1cc(-c2sc(NC(=O)N3CCC(C)(C#N)CC3)nc2-c2cccc(C#N)c2)cc(C(C)(C)O)n1` [Example 12, 4-Cyano-N-[4-(3-cyanophenyl)-5-[2-(1-hydroxy-1-methyl-ethyl)-6-methyl-4-pyridyl]thiazol-2-yl]-4-methyl-piperidine-1-carboxamide], the Ki is 6 nM in experiment [1], 0.16 nM in experiment [2], 3.1 nM in experiment [3] (setting [7]) and 930 nM in experiment [4]. Besides, the IC50 in experiment [6] (Homo sapiens, Dendritic cell) amounted to 73 nM.

With `Cc1cc(-c2sc(NC(=O)N3CC4(COC4)C3)nc2-c2cccc(C#N)c2)cc(Cl)n1` [Example 6.100, N-[5-(2-Chloro-6-methyl-4-pyridyl)-4-(3-cyanophenyl)thiazol-2-yl]-2-oxa-6-azaspiro[3.3]heptane-6-carboxamide], the inhibitory constant (Ki) came out at 25 nM in experiment [1], 0.16 nM in experiment [2], 0.6 nM in experiment [3] (setting [7]) and 549 nM in experiment [4]. For the same compound, in experiment [6] (Homo sapiens, Dendritic cell), the IC50 is 10 nM.

`CC(C)(O)c1cc(-c2sc(NC(=O)N3CC4(COC4)C3)nc2-c2cccc(C#N)c2)cc(Cl)n1` [Example 23, N-[5-[2-Chloro-6-(1-hydroxy-1-methyl-ethyl)-4-pyridyl]-4-(3-cyanophenyl)thiazol-2-yl]-2-oxa-6-azaspiro[3.3]heptane-6-carboxamide]: the inhibitory constant (Ki) in experiment [1] is 9 nM; in experiment [2], 0.16 nM; in experiment [3] (setting [7]), 5.7 nM; in experiment [4] it was 1840 nM. Further, the half-inhibitory concentration (IC50) came to 20 nM in experiment [5] and 182 nM in experiment [6] (Homo sapiens, Dendritic cell).

Take `Cc1cc(-c2sc(NC(=O)N3CC4(COC4)C3)nc2-c2cccc(C#N)c2)c(F)c(C)n1` [Example 6.105, N-[4-(3-Cyanophenyl)-5-(3-fluoro-2,6-dimethyl-4-pyridyl)thiazol-2-yl]-2-oxa-6-azaspiro[3.3]heptane-6-carboxamide]: the Ki is 71 nM in experiment [1], 1.27 nM in experiment [2], 1.3 nM in experiment [3] (setting [7]) and 368 nM in experiment [4]. Further, inhibition in experiment [6] (Homo sapiens, Dendritic cell) was half-maximal at 4 nM (IC50).

Usually Ki stands for a measure of affinity in units of concentration, obtained from inhibition or displacement. Usually IC50 stands for the midpoint of a concentration-inhibition curve. Low values mean greater potency in that assay, high ones weaker potency in that assay.
